{"source": "patent US20240226228A1", "about": "“ANTIMICROBIAL PEPTOID HAVING IMPROVED SELECTIVITY AND ANTIMICROBIAL COMPOSITION COMPRISING SAME” (priority 2021, published 2024)", "note": "Where a SMILES comes first, the peptide text is derived from it. [ ]: non-standard residue; d: D form. Gly(N(CH2)2(3-indolyl)) = O=C(O)CNCCc1c[nH]c2ccccc12; Nspe = C[C@H](NCC(=O)O)c1ccccc1; Nphe = O=C(O)CNCc1ccccc1; Nlys = NCCCCNCC(=O)O", "data": [{"tested_on": "red blood cells", "assay": "Hemolysis assay", "format": "cell-based, Sprague-Dawley mouse", "protocol": "To confirm cytotoxicity by the hemolytic activity of each peptoid synthesized in Example 1, hemolysis analysis was performed. The used blood was collected from a 13-week-old male Sprague-Dawley […] in a tube containing 158 UPS sodium heparin for preventing coagulation, and centrifuged at 4° C. for 10 minutes at 1,000 rpm. Afterward, the plasma was carefully removed, red blood cells were washed with phosphate-buffered saline (PBS: a mixed solution of 35 mM phosphate-buffered solution/150 mM NaCl, pH 7.4) three times and centrifuged at 1,000 rpm for 10 minutes. A 10% (v/v) red blood cell solution diluted in PBS was dispensed at 150 μL into a 96-well plate (microtiter plate), a peptoid solution was added at 50 μL, and 1% Triton X-100 was added. Afterward, the red blood cells were incubated at 37° C. for 1 hour, and the incubated 96-well plate was centrifuged at 1,000 rpm for 15 minutes. A supernatant was obtained and transferred to a new 96-well plate at 150 μL, and absorbance was measured using a spectrophotometer at 540 nm. Percent hemolysis may be calculated by the following Equation 1, and the corresponding results are shown in Tables 11 to 13. % Hemolysis=(A−C)/(B−C)×100 [Equation 1] In Equation 1, A is the absorbance of the peptoid solution at 540 nm, B is the absorbance of the 0.1% Triton X-100 at 540 nm, and C is the absorbance of the PBS solution at 540 nm.", "units": {"HC10": "µM", "HC50": "µM", "Hmax (100 μM)": "%"}, "values": [{"smiles": "C[C@@H](c1ccccc1)N(CC(=O)N(CCCCN)CC(=O)N(CC(=O)N(CC(=O)N(CCCCN)CC(=O)N(CC(=O)N(CC(=O)N(CCCCN)CC(=O)N(CC(=O)N(CC(=O)N(CCc1c[nH]c2ccccc12)CC(N)=O)[C@@H](C)c1ccccc1)[C@@H](C)c1ccccc1)[C@@H](C)c1ccccc1)[C@@H](C)c1ccccc1)[C@@H](C)c1ccccc1)[C@@H](C)c1ccccc1)C(=O)CN(C(=O)CN(CCCCN)C(=O)CNCCc1c[nH]c2ccccc12)[C@@H](C)c1ccccc1", "note": "[Peptoid 5] (H-[Gly(N(CH2)2(3-indolyl))][Nlys][Nspe][Nspe][Nlys][Nspe][Nspe][Nlys][Nspe][Nspe][Nlys][Nspe][Nspe][Gly(N(CH2)2(3-indolyl))]-NH2)", "HC10": "< 6.3", "HC50": 15.3, "Hmax (100 μM)": "108.1 ± 2.7"}, {"smiles": "C[C@@H](c1ccccc1)N(CC(=O)N(CCCCN)CC(=O)N(CC(=O)N(CC(=O)N(CCCCN)CC(=O)N(CC(=O)N(CC(=O)N(CCCCN)CC(=O)N(CC(=O)N(CC(=O)N(CCc1c[nH]c2ccccc12)CC(N)=O)[C@@H](C)c1ccccc1)[C@@H](C)c1ccccc1)[C@@H](C)c1ccccc1)[C@@H](C)c1ccccc1)[C@@H](C)c1ccccc1)[C@@H](C)c1ccccc1)C(=O)CN(C(=O)CNCCCCN)[C@@H](C)c1ccccc1", "note": "[Peptoid 4] (H-[Nlys][Nspe][Nspe][Nlys][Nspe][Nspe][Nlys][Nspe][Nspe][Nlys][Nspe][Nspe][Gly(N(CH2)2(3-indolyl))]-NH2)", "HC10": "< 6.3", "HC50": 6.7, "Hmax (100 μM)": "103.2 ± 0.9"}, {"smiles": "C[C@@H](c1ccccc1)N(CC(=O)N(CCCCN)CC(=O)N(CC(=O)N(CC(=O)N(CCCCN)CC(=O)N(CC(=O)N(CC(=O)N(CCCCN)CC(=O)N(CC(=O)N(CC(=O)N(CCCCN)CC(=O)N(CCCCN)CC(N)=O)[C@@H](C)c1ccccc1)[C@@H](C)c1ccccc1)[C@@H](C)c1ccccc1)[C@@H](C)c1ccccc1)[C@@H](C)c1ccccc1)[C@@H](C)c1ccccc1)C(=O)CNCCc1c[nH]c2ccccc12", "note": "[Peptoid 64] (H-[Gly(N(CH2)2(3-indolyl))][Nspe][Nlys][Nspe][Nspe][Nlys][Nspe][Nspe][Nlys][Nspe][Nspe][Nlys][Nlys]-NH2)", "HC10": 70.7, "HC50": "> 100", "Hmax (100 μM)": "18.9 ± 2.9"}, {"smiles": "C[C@@H](c1ccccc1)N(CC(N)=O)C(=O)CN(CCCCN)C(=O)CN(C(=O)CN(C(=O)CN(CCCCN)C(=O)CN(C(=O)CN(C(=O)CN(CCCCN)C(=O)CN(C(=O)CN(CCCCN)C(=O)CN(CCCCN)C(=O)CN(C(=O)CNCCc1c[nH]c2ccccc12)[C@@H](C)c1ccccc1)[C@@H](C)c1ccccc1)[C@@H](C)c1ccccc1)[C@@H](C)c1ccccc1)[C@@H](C)c1ccccc1)[C@@H](C)c1ccccc1", "note": "[Peptoid 61]", "HC10": 19.3, "HC50": 65.4, "Hmax (100 μM)": "79.9 ± 0.7"}, {"smiles": "C[C@@H](c1ccccc1)N(CC(N)=O)C(=O)CN(CCCCN)C(=O)CN(C(=O)CN(C(=O)CN(CCCCN)C(=O)CN(C(=O)CN(CCCCN)C(=O)CN(CCCCN)C(=O)CN(C(=O)CN(C(=O)CN(CCCCN)C(=O)CN(C(=O)CNCCc1c[nH]c2ccccc12)[C@@H](C)c1ccccc1)[C@@H](C)c1ccccc1)[C@@H](C)c1ccccc1)[C@@H](C)c1ccccc1)[C@@H](C)c1ccccc1)[C@@H](C)c1ccccc1", "note": "[Peptoid 62]", "HC10": 36.2, "HC50": "> 100", "Hmax (100 μM)": "44.8 ± 8.1"}, {"smiles": "C[C@@H](c1ccccc1)N(CC(N)=O)C(=O)CN(C(=O)CN(CCCCN)C(=O)CN(C(=O)CN(CCCCN)C(=O)CN(CCCCN)C(=O)CN(C(=O)CN(C(=O)CN(CCCCN)C(=O)CN(C(=O)CN(C(=O)CN(CCCCN)C(=O)CN(CCc1c[nH]c2ccccc12)C(=O)CNCCc1c[nH]c2ccccc12)[C@@H](C)c1ccccc1)[C@@H](C)c1ccccc1)[C@@H](C)c1ccccc1)[C@@H](C)c1ccccc1)[C@@H](C)c1ccccc1)[C@@H](C)c1ccccc1", "note": "[Peptoid 35]", "HC10": 20.4, "HC50": 63.0, "Hmax (100 μM)": "82.6 ± 3.2"}, {"smiles": "C[C@@H](c1ccccc1)N(CC(N)=O)C(=O)CN(CCCCN)C(=O)CN(C(=O)CN(CCCCN)C(=O)CN(CCCCN)C(=O)CN(C(=O)CN(C(=O)CN(CCCCN)C(=O)CN(C(=O)CN(C(=O)CN(CCCCN)C(=O)CN(C(=O)CNCCc1c[nH]c2ccccc12)[C@@H](C)c1ccccc1)[C@@H](C)c1ccccc1)[C@@H](C)c1ccccc1)[C@@H](C)c1ccccc1)[C@@H](C)c1ccccc1)[C@@H](C)c1ccccc1", "note": "[Peptoid 63]", "HC10": 85.0, "HC50": "> 100", "Hmax (100 μM)": "12.7 ± 0.9"}, {"smiles": "C[C@@H](c1ccccc1)N(CC(N)=O)C(=O)CN(C(=O)CN(CCCCN)C(=O)CN(C(=O)CN(C(=O)CN(CCCCN)C(=O)CN(C(=O)CN(C(=O)CN(CCCCN)C(=O)CN(C(=O)CN(C(=O)CN(CCCCN)C(=O)CNCCc1c[nH]c2ccccc12)[C@@H](C)c1ccccc1)[C@@H](C)c1ccccc1)[C@@H](C)c1ccccc1)[C@@H](C)c1ccccc1)[C@@H](C)c1ccccc1)[C@@H](C)c1ccccc1)[C@@H](C)c1ccccc1", "note": "[Peptoid 3]", "HC10": 6.3, "HC50": 13.9, "Hmax (100 μM)": "100.5 ± 9.9"}, {"smiles": "C[C@@H](c1ccccc1)N(CC(N)=O)C(=O)CN(C(=O)CN(CCCCN)C(=O)CN(C(=O)CN(C(=O)CN(CCCCN)C(=O)CN(C(=O)CN(C(=O)CN(CCCCN)C(=O)CN(C(=O)CN(C(=O)CN(CCCCN)C(=O)CN(Cc1ccccc1)C(=O)CNCc1ccccc1)[C@@H](C)c1ccccc1)[C@@H](C)c1ccccc1)[C@@H](C)c1ccccc1)[C@@H](C)c1ccccc1)[C@@H](C)c1ccccc1)[C@@H](C)c1ccccc1)[C@@H](C)c1ccccc1", "note": "[Peptoid 43]", "HC10": "< 3.1", "HC50": 6.4, "Hmax (100 μM)": "105.6 ± 3.8"}, {"smiles": "C[C@@H](c1ccccc1)N(CC(N)=O)C(=O)CN(C(=O)CN(CCCCN)C(=O)CN(C(=O)CN(C(=O)CN(CCCCN)C(=O)CN(C(=O)CN(C(=O)CN(CCCCN)C(=O)CN(C(=O)CN(C(=O)CN(CCCCN)C(=O)CN(CCc1c[nH]c2ccccc12)C(=O)CNCCc1c[nH]c2ccccc12)[C@@H](C)c1ccccc1)[C@@H](C)c1ccccc1)[C@@H](C)c1ccccc1)[C@@H](C)c1ccccc1)[C@@H](C)c1ccccc1)[C@@H](C)c1ccccc1)[C@@H](C)c1ccccc1", "note": "[Peptoid 6]", "HC10": 9.6, "HC50": 22.0, "Hmax (100 μM)": "101.6 ± 5.8"}, {"smiles": "C[C@@H](c1ccccc1)N(CC(N)=O)C(=O)CN(C(=O)CN(CCCCN)C(=O)CN(CCc1c[nH]c2ccccc12)C(=O)CN(C(=O)CN(CCCCN)C(=O)CN(C(=O)CN(C(=O)CN(CCCCN)C(=O)CN(C(=O)CN(C(=O)CNCCCCN)[C@@H](C)c1ccccc1)[C@@H](C)c1ccccc1)[C@@H](C)c1ccccc1)[C@@H](C)c1ccccc1)[C@@H](C)c1ccccc1)[C@@H](C)c1ccccc1", "note": "[Peptoid 8]", "HC10": 12.8, "HC50": 28.4, "Hmax (100 μM)": "105.1 ± 2.2"}, {"smiles": "C[C@@H](c1ccccc1)N(CC(N)=O)C(=O)CN(C(=O)CN(CCCCN)C(=O)CN(C(=O)CN(C(=O)CN(CCCCN)C(=O)CN(C(=O)CN(C(=O)CN(CCCCN)C(=O)CN(C(=O)CN(CCCCN)C(=O)CN(CCCCN)C(=O)CN(CCc1c[nH]c2ccccc12)C(=O)CNCCc1c[nH]c2ccccc12)[C@@H](C)c1ccccc1)[C@@H](C)c1ccccc1)[C@@H](C)c1ccccc1)[C@@H](C)c1ccccc1)[C@@H](C)c1ccccc1)[C@@H](C)c1ccccc1", "note": "[Peptoid 36]", "HC10": 15.3, "HC50": 39.4, "Hmax (100 μM)": "89.1 ± 3.4"}, {"smiles": "C[C@@H](c1ccccc1)N(CC(=O)N(CCCCN)CC(=O)N(CC(=O)N(CC(=O)N(CCCCN)CC(=O)N(CC(=O)N(CC(=O)N(CCCCN)CC(=O)N(CC(=O)N(CC(=O)N(CC(N)=O)Cc1ccccc1)[C@@H](C)c1ccccc1)[C@@H](C)c1ccccc1)[C@@H](C)c1ccccc1)[C@@H](C)c1ccccc1)[C@@H](C)c1ccccc1)[C@@H](C)c1ccccc1)C(=O)CN(C(=O)CN(CCCCN)C(=O)CNCc1ccccc1)[C@@H](C)c1ccccc1", "note": "[Peptoid 42] (H-[Nphe][Nlys][Nspe][Nspe][Nlys][Nspe][Nspe][Nlys][Nspe][Nspe][Nlys][Nspe][Nspe][Nphe]-NH2)", "HC10": "< 3.1", "HC50": 6.6, "Hmax (100 μM)": "105.9 ± 1.1"}]}]}
